Measurements taken from patent US20230069963A1, “PYRAZOLO[1,5-A]PYRIMIDINE MACROCYCLIC COMPOUND” (priority 2018, published 2023).
Counter-ions that a name gives are not always drawn. Like-named read-outs stand apart in the source and are kept apart here.

Experiments:
[1] = amide bond, HATU, DMF
RSV ATCC VR-1540 (A2) = test: microbe, parasite or virus in culture; format: cell-based; settings: human respiratory syncytial virus, HEp-2, 96 h; Hep2 cells, incubated for 4 days, CPE detected with XTT assay (absorbance 450 nm); read-out: EC50 (nmol/L) against RSV A2 strain
[2] = test system: F protein D486N mutant strain of RSV A2 strain; format: cell-based, respiratory syncytial virus (RSV); settings: Hep2 cells, incubated for 4 days, CPE detected with XTT assay (absorbance 450 nm); read-out: EC50 (nmol/L) against F protein D486N mutant strain of RSV A2 strain
D486N mutant strain = settings: D486N mutant vs wild strain; cited from earlier work

SMILES | EC50 (RSV ATCC VR-1540 (A2)) | EC50 [2] | other results
CN1CCCCS(=O)(=O)NC(C)(c2ccccc2)C(=O)N2CCCC[C@H]2c2cc3nc(Cl)cc1n3n2 (some centres unmarked) |  |  | ring closure, yield of all isomers ([1]; from CN(CCCCS(=O)(=O)NC(C)(C(=O)O)c1ccccc1)c1cc(Cl)nc2cc([C@@H]3CCCCN3)nn12, 10.2 mM, 70.0 °C, 2.5 h): 80.4%
CN1CCNC(=O)COc2ccc(F)cc2C(=O)N2CCCC[C@H]2c2cc3nc(Cl)cc1n3n2 |  |  | ring closure, yield of all isomers ([1]; from CN(CCNC(=O)COc1ccc(F)cc1C(=O)O)c1cc(Cl)nc2cc([C@@H]3CCCCN3)nn12, 10.0 mM, 25.0 °C, 15.0 h): 64.8%
Cc1ccc2c(c1)C(=O)N1CCCCC1c1cc3nc(C4CC(O)C4)cc(n3n1)N(C)CCNC(=O)CO2 [Example 117, (18aS)-13-(trans-3-hydroxycyclobutyl)-2,11-dimethyl-8,9,10,11,19,20,21,22-octahydro-18aH,24H-18,15-(metheno)pyrido[2,1-l]pyrimido[6,1-h][1,4,7,9,10,13]benzoxapentaazacyclohexadecine-7,24(6H)-dione] | 0.773 nmol/L | 0.742 nmol/L | 
[2H]C([2H])([2H])c1ccc2c(c1)C(=O)N1CCCCC1c1cc3nc(C4CC(O)C4)cc(n3n1)N(C([2H])([2H])[2H])CCNC(=O)CO2 [Example 120, (18aS)-13-(trans-3-hydroxycyclobutyl)-2,1I-bis[trideuteriomethyl]-8,9,10,11,19,20,21,22-octahydro-18aH,24H-18,15-(metheno)pyrido[2,1-l]pyrimido[6,1-h][1,4,7,9,10,13]benzoxapentaazacyclohexadecine-7,24(6H)-dione] | 0.45 nmol/L | 0.639 nmol/L | 
Cc1ccc2c(c1)C(=O)N1CCCCC1c1cc3nc(N4CCC(N)C4)cc(n3n1)N(C)CCCCO2 [Example 244, (23aS)-18-[(3S)-3-aminopyrrolidin-1-yl]-8,16-dimethyl-1,3,4,13,14,15,16,23a-octahydro-2H, 6H,12H-23,20-(metheno)pyrido[2,1-k]pyrimido[6,1-g][1,6,8,9,12]benzoxatetraazacyclopentadecin-6-one hydrochloride] | 4.01 nmol/L | 7.34 nmol/L | 
CN1CCCS(=O)(=O)Nc2ccc(Cl)cc2C(=O)N2CCCCC2c2cc3nc(N4CCC(N)C4)cc1n3n2 [Example 312, (23aS)-18-[(3S)-3-aminopyrrolidin-1-yl]-8-chloro-16-methyl-1,3,4,13,14,15,16,23a-octahydro-2H,6H-23,20-(metheno)-12h-pyrido[2,1-k]pyrimido[6,1-g][2,1,6,8,9,12]benzothiapentaazacyclopentadecine-6,12,12(11H)-trione] | 4.05 nmol/L | 31.8 nmol/L | 
Cc1cn2nc([C@@H]3CCCCN3C(=O)c3cc(Cl)ccc3NS(C)(=O)=O)cc2nc1N1CC[C@H](N)C1 [GS-5806] |  |  | reduction of activity against the D486N mutant strain compared to the activity against the wild strain (D486N mutant strain): approximately 1000 times
